A short description of data set [1]: In vitro liver microsome stability test (human). Format: in vitro ADME. Particulars: human liver microsomes, NADPH, 37° C., 0-45 min. On the procedure: (§1) Selecting Ketanserin as the reference compound. The specific method is as follows:
(§2) Preparing 0.1M K3PO4 (pH 7.4) buffer and 3×NADPH stock solution (6 mM, 5 mg/mL), and preheating in a 37° C. water bath; preparing of test compound and control compound spiking solution: adding 5 μL compound stock solution ([…]) into 95 μL acetonitrile; preparing of 1.5 μM spiking solution in microsomes (0.75 mg/mL): adding 1.5 μL spiking solution and 18.75 μL liver microsomes solution (20 mg/mL) into 479.75 μL K3PO4 buffer; taking 30 μL spiking solution in microsomes to the multi-well plate and incubating at 37° C. for 5 minutes; adding 15 μL NADPH stock solution into each well to start the reaction, and timing; respectively at 0 min, 5 min, 15 min, 30 min and 45 min, adding 150 μL of IS-containing acetonitrile solution to terminate the reaction; shaking for 10 mins and then centrifuging at 6000 rpm for 15 mins; taking 80 μL of the supernatant from each well for LC/MS detection and calculating T1/2.
(§3) Note: The mice and human liver microsomes used in the experiments are purchased from Xenotech.
A general note: Liver microsomes are vesicles of endoplasmic reticulum, rich in cytochrome P450 enzymes.

The subject of data set [2] is HEK293T-mtkeima cells. The experiment in a line: Functional test of mitophagy inducer, direct treatment without CCCP. It is filed as cell-based, human. Particulars: for Ability to induce mitophagy: HEK293T-mtkeima cells, number of cells in which mitophagy occurs/number of total cells. On the procedure:
Seeding human embryonic kidney transformed cells HEK293T-mtkeima cells in a 96-well black ELISA Plate at 1.5*10^5 cells/ml, 100 μl per well; after 25 hours, adding UMI-77 and compounds I-1˜I-26 respectively, and setting up 3 replicates; under 37° C., 5% CO2 incubation conditions, taking picture with biotekcytation5 every few hours for a total of 20 hours. Taking the bright field as the focusing channel, and taking 9pictures per well, and processing the pictures by using the instrument software and converting into the degree of mitophagy strength, exemplifying by UMI-77 and Compound I-4, the results are shown in FIG. 1.
Note: The HEK293T-mtkeima cells used in the experiments are HEK293T-mtkeima cells obtained according to the method mentioned in the literature [Cen, X. et al. Nat Commun 11, 5731 (2020).], by using lentiviral packaging technology, and stably expressing mtkeima protein in HEK293T cells. The CCCP used in the experiments is purchased from TargetMol (Item No. T7081).

A short description of data set [3]: In vitro liver microsome stability test (mice). To be noted: mice liver microsomes, NADPH, 37° C., 0-45 min. It is filed as in vitro ADME. How it is done: as §1, §2, §3
Data set [4] has as its system HEK293T-mtkeima cells. The experiment in a line: Selective induction of mitophagy after CCCP-induced mitochondrial damage. Format: cell-based, human. To be noted: 5 uM or 10 uM CCCP pre-treatment compared with no CCCP treatment.

With `CN(c1cc(SCC(=O)O)c(O)c2ccccc12)S(=O)(=O)c1ccc(Br)cc1` [Compound I-1], the Liver microsome stability result in data set [1] and in data set [3] was “relatively superior stability” throughout. Besides, the “Ability to induce mitophagy” value in the data set with HEK293T-mtkeima cells [2] was “+++ (strong ability to induce mitophagy (number of cells in which mitophagy occurs/number of total cells >0.30))”. For the same compound, the “Selective induction of autophagy in damaged mitochondria (FIG. 2)” value with HEK293T-mtkeima cells [4] was “more likely to induce autophagy in damaged mitochondria”.

`O=C(O)CSc1cc(N(CCO)S(=O)(=O)c2ccc(Br)cc2)c2ccccc2c1O` [Compound I-2]: the “Ability to induce mitophagy” value in the data set with HEK293T-mtkeima cells [2] is reported as “++ (moderate ability to induce mitophagy (number of cells in which mitophagy occurs/number of total cells is in the range of 0.2~0.3))”.

For the compound `O=C(O)CSc1cc(N(c2ccccc2)S(=O)(=O)c2ccc(Br)cc2)c2ccccc2c1O` [Compound I-3], the “Ability to induce mitophagy” value in the data set on HEK293T-mtkeima cells [2] is on record as “++ (moderate ability to induce mitophagy (number of cells in which mitophagy occurs/number of total cells is in the range of 0.2~0.3))”.

Regarding `CN=S(=O)(Nc1cc(SCC(=O)O)c(O)c2ccccc12)c1ccc(Br)cc1` (centres unmarked) [Compound I-4], the Liver microsome stability entry in data set [1] and in data set [3] was “relatively superior stability” throughout. Further, the “Ability to induce mitophagy” value with HEK293T-mtkeima cells [2] is recorded as “+++ (strong ability to induce mitophagy (number of cells in which mitophagy occurs/number of total cells >0.30))”. Also, the “Strength of mitophagy induction compared with UMI-77 (FIG. 1)” value with HEK293T-mtkeima cells [2] (cells not treated with CCCP) is “induces mitophagy more strongly than UMI-77”.

For `O=C(O)CSc1cc(NS(=O)(=NC2CC2)c2ccc(Br)cc2)c2ccccc2c1O` (centres unmarked) [Compound I-5], the “Ability to induce mitophagy” value with HEK293T-mtkeima cells [2] is “+++ (strong ability to induce mitophagy (number of cells in which mitophagy occurs/number of total cells >0.30))”.

For `O=C(O)CSc1cc(NS(=O)(=NC2COC2)c2ccc(Br)cc2)c2ccccc2c1O` (centres unmarked) [Compound I-6], the “Ability to induce mitophagy” value in the data set with HEK293T-mtkeima cells [2] is listed as “+++ (strong ability to induce mitophagy (number of cells in which mitophagy occurs/number of total cells >0.30))”.

Regarding `O=C(O)CSc1cc(NS(=O)(=Nc2ccccc2)c2ccc(Br)cc2)c2ccccc2c1O` (centres unmarked) [Compound I-8], in the data set with HEK293T-mtkeima cells [2], the “Ability to induce mitophagy” value is “++ (moderate ability to induce mitophagy (number of cells in which mitophagy occurs/number of total cells is in the range of 0.2~0.3))”.

As to `CN=S(=O)(c1ccc(Br)cc1)N(C)c1cc(SCC(=O)O)c(O)c2ccccc12` (centres unmarked) [Compound I-9], the “Ability to induce mitophagy” value with HEK293T-mtkeima cells [2] is “++ (moderate ability to induce mitophagy (number of cells in which mitophagy occurs/number of total cells is in the range of 0.2~0.3))”.

Regarding `O=C(O)CSc1cc(N2CCN=S2(=O)c2ccc(Br)cc2)c2ccccc2c1O` (centres unmarked) [Compound I-10], the “Ability to induce mitophagy” value in the data set with HEK293T-mtkeima cells [2] is listed as “++ (moderate ability to induce mitophagy (number of cells in which mitophagy occurs/number of total cells is in the range of 0.2~0.3))”.

`O=C(O)CSc1cc(N2CCCN=S2(=O)c2ccc(Br)cc2)c2ccccc2c1O` (centres unmarked) [Compound I-11]: in the data set with HEK293T-mtkeima cells [2], the “Ability to induce mitophagy” value was “++ (moderate ability to induce mitophagy (number of cells in which mitophagy occurs/number of total cells is in the range of 0.2~0.3))”.

For the compound `CN=S(=O)(Nc1cc(SCc2nn[nH]n2)c(O)c2ccccc12)c1ccc(Br)cc1` (centres unmarked) [Compound I-12], in the data set on HEK293T-mtkeima cells [2], the “Ability to induce mitophagy” value is on record as “+++ (strong ability to induce mitophagy (number of cells in which mitophagy occurs/number of total cells >0.30))”.

For the compound `CN=S(=O)(Nc1cc(SCc2nnc[nH]2)c(O)c2ccccc12)c1ccc(Br)cc1` (centres unmarked) [Compound I-13], the “Ability to induce mitophagy” value in the data set on HEK293T-mtkeima cells [2] is “++ (moderate ability to induce mitophagy (number of cells in which mitophagy occurs/number of total cells is in the range of 0.2~0.3))”.

Regarding `CN=S(=O)(Nc1cc(SCC(=O)O)c(OC(C)=O)c2ccccc12)c1ccc(Br)cc1` (centres unmarked) [Compound I-14], in the data set with HEK293T-mtkeima cells [2], the “Ability to induce mitophagy” value is given as “++ (moderate ability to induce mitophagy (number of cells in which mitophagy occurs/number of total cells is in the range of 0.2~0.3))”.

Regarding `CN=S(=O)(Nc1cc(SCC(=O)O)c(O)c2ccccc12)c1ccc(Oc2ccccc2)cc1` (centres unmarked) [Compound I-17], the “Ability to induce mitophagy” value with HEK293T-mtkeima cells [2] is given as “+++ (strong ability to induce mitophagy (number of cells in which mitophagy occurs/number of total cells >0.30))”.

For the compound `CN=S(=O)(Nc1cc(SCC(=O)O)c(O)c2ccccc12)c1ccc(-c2ccccc2)cc1` (centres unmarked) [Compound I-18], in the data set on HEK293T-mtkeima cells [2], the “Ability to induce mitophagy” value is given as “++ (moderate ability to induce mitophagy (number of cells in which mitophagy occurs/number of total cells is in the range of 0.2~0.3))”.

Take `CN=S(=O)(Nc1cc(SCC(=O)O)c(O)c2ccccc12)c1ccc(C(F)(F)F)cc1` (centres unmarked) [Compound I-19]: the “Ability to induce mitophagy” value in the data set on HEK293T-mtkeima cells [2] was “+++ (strong ability to induce mitophagy (number of cells in which mitophagy occurs/number of total cells >0.30))”.

`CN=S(=O)(Nc1cc(SCC(=O)O)c(O)c2ccccc12)c1ccc2ccccc2c1` (centres unmarked) [Compound I-20]: the “Ability to induce mitophagy” value with HEK293T-mtkeima cells [2] is “++ (moderate ability to induce mitophagy (number of cells in which mitophagy occurs/number of total cells is in the range of 0.2~0.3))”.

As for `CN=S(=O)(Nc1cc(SCC(=O)O)c(O)c2ccccc12)c1cccs1` (centres unmarked) [Compound I-21], in the data set with HEK293T-mtkeima cells [2], the “Ability to induce mitophagy” value is recorded as “+++ (strong ability to induce mitophagy (number of cells in which mitophagy occurs/number of total cells >0.30))”.

As for `CN=S(=O)(Nc1cc(SCC(=O)O)c(O)c2ccccc12)c1cccc(-c2ccccc2)c1` (centres unmarked) [Compound I-22], in the data set on HEK293T-mtkeima cells [2], the “Ability to induce mitophagy” value is recorded as “++ (moderate ability to induce mitophagy (number of cells in which mitophagy occurs/number of total cells is in the range of 0.2~0.3))”.

Regarding `O=C(O)CSc1cc(NS(=O)(=O)c2ccc(Br)cc2)c2ccccc2c1O` [UMI-77, reference compound], the Liver microsome stability entry in data set [1] and in data set [3] was “unstable” each time. For the same compound, the “Ability to induce mitophagy” value with HEK293T-mtkeima cells [2] is given as “+ (weak ability to induce mitophagy (number of cells in which mitophagy occurs/number of total cells is in the range of 0.1~0.2))”. Besides, the “Selective induction of autophagy in damaged mitochondria (FIG. 2)” value with HEK293T-mtkeima cells [4] is reported as “unable to selectively induce autophagy in damaged mitochondria”.

Values taken from patent US20240400500A1, “SMALL-MOLECULE COMPOUND HAVING NAPHTHALENETHIOL ETHER STRUCTURE, AND USE THEREOF” (HANGZHOU PHECDAMED CO., LTD., priority 2021, published 2024).
